# Reference: patent publication US20180044306A1, “1,3,4-THIADIAZOL-2-YL-BENZAMIDE DERIVATIVES AS INHIBITORS OF THE WNT SIGNALLING PATHWAY” (Bayer Pharma Aktiengesellschaft, priority 2015, published 2018)
# What was measured:
# HCT116-FOP = experiment: Control reporter assay, HCT116 cells with FOP control vector (non-functional TCF elements); format: cell-based; conditions: Homo sapiens, HCT-116, luciferase expression, 36 hours incubation, dilution series 50 μM to 15 nM, read-out: HCT116-FOP IC50 [M] mol/L]
# Description: In a parallel approach, HCT116 cells were cotransfected with the FOP control vector and pcDNA3. The FOP vector is identical to the TOP construct, but it contains instead of functional TCF elements a randomized, non-functional sequence. For this transfection a stable transfected cell line was generated as well.
# (§1) In preparation of the assay, the two cell lines were plated 24 hours before at 10000 cells per well of a 384 micro titre plate (MTP) in 30 μL growth medium. Selective inhibitory activity for small molecules on the mutated Wnt pathway was determined after parallel incubation of both (TOP and FOP) HCT116 reporter cell lines with a compound dilution series from 50 μM to 15 nM in steps of 3.16-fold dilutions in CAFTY buffer (130 mM NaCI, 5 mM KCI, 20 mM HEPES, 1 mM MgCl2, 5 mM NaHCO3, pH 7.4) containing 2 mM Ca^2+ and 0.01% BSA. The compounds were thereby serially prediluted in 100% DMSO and thereafter in addition 50 fold into the CAFTY compound dilution buffer (described above). From this dilution 10 μL were added to the cells in 30 μL growth medium and incubated for 36 hours at 37° C. and 5% CO2. Thereafter luciferase assay buffer (1:1 mixture of luciferase substrate buffer (20 mM Tricine, 2.67 mM MgSO4, 0.1 mM EDTA, 4 mM DTT, 270 μM Coenzyme A, 470 μM Luciferin, 530 μM ATP, ph adjusted to pH 7.8 with a sufficient volume of 5M NaOH) and Triton buffer (30 mL Triton X-100, 115 mL glycerol, 308 mg Dithiothreitol, 4.45 g Na2HPO4. 2 H2O, 3.03 g TRIS HCl, ad 1I H2O, pH 7.8) was added as equal volume to the compound solution on the cells to determine luciferase expression as a measure of Wnt signaling activity in a luminometer.
# [1] = test system: constitutive active colorectal cancer cell (CRC) Wnt pathway (HCT116-TOP); experiment: Cellular reporter assay, HCT116 Super TopFlash (TOP), constitutive active Wnt pathway; format: cell-based; conditions: Homo sapiens, HCT-116; HCT116 Super TopFlash reporter cells, luciferase expression, 36 hours incubation, dilution series 50 μM to 15 nM
# Description: In order to discover and characterize small molecules which inhibit the constitutive active colorectal cancer cell (CRC) Wnt pathway, a cellular reporter assay was employed. The corresponding assay cell was generated by transfection of the colorectal cancer cell line HCT116 (ATCC, #CCL-247) with the Super TopFlash vector (Morin, Science 275, 1997, 1787-1790; Molenaar et al., Cell 86 (3), 1996, 391-399). The HCT116 cell line is cultivated at 37° C. and 5% CO2 in DMEM/F-12 (Life Technologies, #11320-074), supplemented with 2 mM glutamine, 20 mM HEPES, 1.4 mM pyruvate, 0.15% Na-bicarbonate and 10% foetal bovine serum (GIBCO, #10270), this cancer cell line is pathophysiological relevant since it carries a deletion of position S45 in the β-catenin gene, leading to constitutive active Wnt signaling. Stable transfectants were generated by cotransfection with pcDNA3 and selection of stable transfected cells with 1 mg/ml G418.
# as §1
Structure (SMILES),IC50 (HCT116-FOP) [M],IC50 [1] [µM]
"COC1CCN(c2nnc(NC(=O)c3ccc(OC(F)(F)F)c(NC(=O)CN4CCOCC4)c3)s2)CC1 [Example 30, N-[5-(4-methoxypiperidin-1-yl)-1,3,4-thiadiazol-2-yl]-3-((morpholin-4-ylacetyl)-amino]-4-(trifluoromethoxy)-benzamide]",≥ 5e-05,33.5
"O=C(CN1CCOCC1)Nc1cc(C(=O)Nc2nnc(N3CCCCC3)s2)ccc1OC(F)(F)F [Example 31, 3-[(morpholin-4-ylacetyl)-amino]-N-[5-(piperidin-1-yl)-1,3,4-thiadiazol-2-yl]-4-(trifluoromethoxy)benzamide]",≥ 5e-05,34.1
"O=C(CN1CCOCC1)Nc1cc(C(=O)Nc2nnc(N3CCCC3)s2)ccc1OC(F)(F)F [Example 32, 3-[(morpholin-4-ylacetyl)-amino]-N-(5-(pyrrolidin-1-yl)-1,3,4-thiadiazol-2-yl)-4-(trifluoromethoxy)benzamide]",≥ 5e-05,50
CN(C)C(=O)N1CCN(c2nnc(NC(=O)c3ccc(OC(F)(F)F)c(NC(=O)CN4CCOCC4)c3)s2)CC1 [Example 33],≥ 5e-05,50
"CC1(C)CCN(c2nnc(NC(=O)c3ccc(OC(F)(F)F)c(NC(=O)CN4CCOCC4)c3)s2)CC1 [Example 34, N-[5-(4,4-dimethylpiperidin-1-yl)-1,3,4-thiadiazol-2-yl]-3-[(morpholin-4-ylacetyl)-amino]-4-(trifluoromethoxy)-benzamide]",≥ 5e-05,50

# Second part, the molecule after the results:
IC50 (HCT116-FOP) [M],IC50 [1] [µM],Structure (SMILES)
≥ 5e-05,13,"CC1CCN(c2nnc(NC(=O)c3ccc(OC(F)(F)F)c(NC(=O)CN4CCOCC4)c3)s2)CC1 [Example 25, N-[5-(4-methylpiperidin-1-yl)-1,3,4-thiadiazol-2-yl]-3-[(morpholin-4-ylacetyl)-amino]-4-(trifluoromethoxy)-benzamide]"
≥ 5e-05,15,"CC(=O)N1CCN(c2nnc(NC(=O)c3ccc(OC(F)(F)F)c(NC(=O)CN4CCOCC4)c3)s2)CC1 [Example 26, N-[5-(4-acetylpiperazin-1-yl)-1,3,4-thiadiazol-2-yl]-3-[(morpholin-4-ylacetyl)amino]-4-(trifluoromethoxy)benzamide]"
≥ 5e-05,20,CC1(O)CCN(c2nnc(NC(=O)c3ccc(OC(F)(F)F)c(NC(=O)CN4CCOCC4)c3)s2)CC1 [Example 27]
2.69e-05,20,"CN1CCN(CC(=O)Nc2cc(C(=O)Nc3nnc(N4CCC(C(C)(C)O)CC4)s3)ccc2OC(F)(F)F)CC1 [Example 28, N-{5-[4-(2-hydroxypropan-2-yl)piperidin-1-yl]-1,3,4-thiadiazol-2-yI}-3-{[(4-methylpiperazin-1-yl)-acetyl]amino}-4-(trifluoromethoxy)benzamide]"
≥ 5e-05,26.8,"O=C(CN1CCOCC1)Nc1cc(C(=O)Nc2nnc(N3CCC(O)CC3)s2)ccc1OC(F)(F)F [Example 29, N-[5-(4-hydroxypiperidin-1-yl)-1,3,4-thiadiazol-2-yl]-3-[(morpholin-4-ylacetyl)-amino]-4-(trifluoromethoxy)-benzamide]"
